Data: patent US20200345055A1, “ACTIVATION OF CONDITIONALLY-EXPRESSED OLIGOSACCHARIDE PATHWAYS DURING FERMENTATION OF PROBIOTIC STRAINS” (EVOLVE BIOSYSTEMS, INC., priority 2018, published 2020)
Entries after “also recorded” stand apart in the source; their conditions may differ.

Key:
[1] = test system: Blon_2343 (carbohydrate ABC transporter inner membrane protein); assay: qRT-PCR gene expression in B. infantis EVC001, relative to Blon_0393, 2^-ΔΔCt; format: cell-based, Bifidobacterium longum subsp. infantis EVC001; conditions: 10 g/L activator + 10 g/L glucose, 16 hours; control 20 g/L glucose = 1
Procedure: (§1) In some embodiments, gene activation relates to Blon_0881 and Blon_2343 and their expression is greater than 1; that is, when the delta delta cycle threshold (2^−ΔΔ^Ct) is greater than 1, 2^−ΔΔ^Ct is calculated using Blon_0393, or another constitutively expressed gene as a reference. The result (activation) is the fold change (2^−ΔΔ^Ct>1) of gene expression, determined based on the 2^−ΔΔ^Ct method. (Livak K and Schmittgen T. (2001). Analysis of relative gene expression data using qRT-PCR and the 2^−ΔΔ^Ct Method. Methods: 25: 402-8). In other embodiments, other genes from Table 1 are used in addition to Blon_0881 and Blon_2343.
(§2) B. infantis EVC001 (Bifidobacterium longum subsp. infantis EVC001 deposited under ATCC Accession No. PTA-125180) was grown under 3 different experimental conditions for 16 hours. The carbon source was added to the initial culture media in the following amounts: 1) 20 g/L glucose; 2) 10 g/L N-acetyl-lactosamine and 10 g/L glucose; and 3) 10 g/L NAG and 10 g/L glucose. The cells were harvested and RNA was extracted to look specifically at gene expression of Blon_0881 and Blon_2343 by qRT-PCR relative to Blon_0393 and expressed as 2^−ΔΔ^Ct. Activation is determined by comparing against the control (glucose). A result greater than 1 is considered activated N-acetyl-lactosamine is an activator of B. infantis EVC001.

[2] = test system: Blon_0881 (glucosamine-6-phosphate isomerase); assay: as above; format: cell-based, Bifidobacterium longum subsp. infantis EVC001; conditions: 10 g/L activator + 10 g/L glucose, 16 hours; control 20 g/L glucose = 1
Procedure: as §1, §2

[3] = test system: B. infantis EVC001; assay: Activation of B. infantis EVC001 judged from Blon_0881 and Blon_2343 expression against glucose control; format: cell-based, Bifidobacterium longum subsp. infantis EVC001; conditions: 10 g/L activator + 10 g/L glucose, 16 hours
Procedure: as §1, §2

[4] = test system: N-acetylglucosamine-6-phosphate deacetylase gene in L. plantarum; assay: qRT-PCR of N-acetylglucosamine-6-phosphate deacetylase in Lactobacillus plantarum, normalized to rpoB; format: cell-based; conditions: for activation of L. plantarum (fold change of N-acetylglucosamine-6-phosphate deacetylase expression): FIG. 3
Description: FIG. 3. Average relative fold change in the expression of the genes coding for N-acetylglucosamine-6-phosphate deacetylase under different concentrations of N-acetylglucosamine (NAG) added to the culture media for Lactobacillus plantarum. Culture media with different concentrations of NAG (3, 12.5 and 20 g/L) were used to ferment Lactobacillus plantarum. The cells were harvested and RNA was isolated for qRT-PCR. Using specific primers for N-acetylglucosamine-6-phosphate deacetylase, activation was assessed using normalization to a housekeeping gene (rpoB) found in L. plantarum. […] Three different fermentation media compositions were made that contained: 1) 100% NAG (25 g/L); 2) 50% NAG (12.5 g/L) with 50% Lactose (12.5 g/L); and 3) 12.5% NAG (3 g/L) with 87.5% lactose (22 g/L). This represented about 2% of the total media composition (wt/vol). The media also contained sources of nitrogen, minerals, reducing agents and was autoclaved prior to addition of L. plantarum inoculum. The fermentation was carried out under anaerobic conditions for 24 hours until the cells reached the stationary phase. The cells were harvested and RNA extracted (Sambrook, Joseph. & Russell, David W. & Cold Spring Harbor Laboratory. (2012). Molecular cloning: a laboratory manual. Cold Spring Harbor, N.Y: Cold Spring Harbor Laboratory). Specific primers for Lactobacillus were used for the following gene N-acetylglucosamine-6-phosphate deacetylase (activation gene) using normalization to a housekeeping gene (rpoB) found in L. plantarum.

[5] = test system: fucosidase activity in B. infantis; assay: Fucosidase activity of dried B. infantis final product (colorimetric nitrophenol release, absorbance at 450 nm); format: cell-based, Bifidobacterium infantis
Procedure: FIG. 1. A comparison of fucosidase activity between a final product of B. infantis grown on N-acetylglucosamine (NAG) and a final product of B. infantis grown on glucose/lactose. B. infantis grown on 2.5% w/v NAG is compared to B. infantis grown on glucose/lactose. The absorbance due to the colorometric change resulting from fucosidase activity in the supernatant is measured using a spectrophotometer at 450 nm. […] A fermentation media was made that contained NAG as 100% of the carbon source. This represented 2% of the total media composition (wt/vol). The media also contained sources of nitrogen, minerals, reducing agents and was autoclaved prior to addition of a B. infantis inoculum. The fermentation was carried out under anaerobic conditions for up to 72 hours, until the fermentation reached the stationary phase. The cells were separated from the spent media and concentrated. A cryoprotectant was mixed with the cells to stabilize before freeze-drying. Once dried, the formulation was analyzed for fucosidase activity compared to a dried formulation that had been grown on glucose/lactose. […] The colorimetric difference was confirmed using a spectrophotometer (FIG. 1).

[6] = test system: Blon_2343 and Blon_0881 in B. infantis; assay: qRT-PCR of Blon_2343 and Blon_0881 in B. infantis grown on NAG/glucose, normalized to Blon_0393; format: cell-based; conditions: all tested concentrations of NAG (5-20 g/L with glucose to 20 g/L), harvested after 6 or 12 hours; FIG. 2
Procedure: FIG. 2. Average relative fold change in gene expression of the genes Blon_2343 and Blon_0881 in B. infantis coding a carbohydrate ABC transporter inner membrane protein and a glucosamine-6-phosphate isomerase or NagB, respectively. Different concentrations of N-acetylglucosamine (NAG) were added to the culture media used to ferment B. infantis. The cells were harvested after 6 hours (A) or 12 hours of growth (B) and RNA was isolated for quantitative reverse transcription PCR (qRT-PCR). Activation was assessed using specific primers for Blon_2343 and Blon_0881 and normalized to a housekeeping gene (Blon_0393). The dashed horizontal line represents no change in expression. […] Cells grown in glucose alone (0 g/L NAG) show no activation.
In some embodiments, gene activation relates to Blon_0881 and Blon_2343 and their expression is greater than 1; that is, when the delta delta cycle threshold (2^−ΔΔ^Ct) is greater than 1, 2^−ΔΔ^Ct is calculated using Blon_0393, or another constitutively expressed gene as a reference. The result (activation) is the fold change (2^−ΔΔ^Ct>1) of gene expression, determined based on the 2^−ΔΔ^Ct method. […]
A series of fermentations were conducted where B. infantis was grown on various concentrations of NAG and glucose shown in Table 5. The cells were grown for a determined period of time (i.e 6 and 12 hours) and spun down. […]

activation of L. plantarum (fold change of N-acetylglucosamine-6-phosphate deacetylase expression) ([4]; 3 g/L NAG (12.5%) with 22 g/L lactose, 24 hours)	activation of L. plantarum (fold change of N-acetylglucosamine-6-phosphate deacetylase expression) ([4]; 12.5 g/L NAG (50%) with 12.5 g/L lactose, 24 hours)	activation of L. plantarum (fold change of N-acetylglucosamine-6-phosphate deacetylase expression) ([4]; 20 g/L NAG in culture media)	activation of L. plantarum (N-acetylglucosamine-6-phosphate deacetylase expression) ([4]; 100% NAG (25 g/L) as carbon source, 24 hours)	fucosidase activity (absorbance at 450 nm) ([5]; B. infantis final product grown on 2.5% w/v NAG, compared to cells grown on glucose/lactose, FIG. 1)	release of nitrophenol from aryl-substituted glycoside via fucosidases ([5]; dried B. infantis grown on NAG as 100% of carbon source, 2% wt/vol of media, up to 72 hours, compared to glucose/lactose)	Compound	Mean 2^-ΔΔCt BLON_2343 [1]	Mean 2^-ΔΔCt BLON_0881 [2]	Interpretation (activation; result greater than 1 is considered activated) [3]	relative fold change in gene expression of Blon_2343 and Blon_0881 (2^ΔΔCt), activation [6]
						CC(=O)N[C@H]1C(O)O[C@H](CO)[C@@H](O[C@@H]2O[C@H](CO)[C@H](O)[C@H](O)[C@H]2O)[C@@H]1O (stereo partly shown) [N-acetyl-lactosamine]	6.94	10.50	activator; also recorded: Activated	
did not	activated; also recorded: activation	activated	activation	had fucosidase activity	release nitrophenol	CC(=O)N[C@H]1C(O)O[C@H](CO)[C@@H](O)[C@@H]1O (stereo partly shown) [NAG, N-acetylglucosamine]	2.10	3.41	Activated	> 1
